Square brackets hold non-standard residues; d marks the D form. Ends that are not written are not given here. Lys(Me3) = C[N+](C)(C)CCCC[C@H](N)C(=O)O
Assays:
KDM5D = experiment: LC-MS demethylation activity assay, KDM5D; type: biochemical, human; details: 2 μM KDM, 10 μM H1/H3 peptide, 10 μM FAS, 100 μM LAA, 20 μM 2OG, 50 mM HEPES pH 7.5, 2 h, room temperature, T (tri-) initial methylation state
Procedure, shortened: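 His6-tagged recombinant catalytic domains (2.0 μM) were used: KDM4A M1–L359, KDM4D M1–L359 and KDM3C L2157–L2500 from E. coli, and KDM5D M1–D775 from Sf9. Each acted on 10 μM H1 peptide in 50 mM HEPES pH 7.5 with 10 μM Fe(II), 100 μM ascorbate and 20 μM 2OG for 2 h at room temperature. Reactions were formic acid-quenched and analysed by LC-MS.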

KDM3B = experiment: LC-MS demethylation activity assay, KDM3B; type: biochemical, human; details: 2 μM KDM, 10 μM H1/H3 peptide, 10 μM FAS, 100 μM LAA, 20 μM 2OG, 50 mM HEPES pH 7.5, 2 h, room temperature, T (tri-) initial methylation state
Procedure, shortened: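 H1 isoform peptides (10 μM) were incubated 2 h at room temperature with 2 μM recombinant N-terminally His6-tagged catalytic domains in 50 mM HEPES pH 7.5 containing FAS (10 μM), ascorbate (100 μM) and 2OG (20 μM). Reactions were quenched with formic acid (1% final), and demethylation was analysed by LC-MS (Q-TOF).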

For “KKKATK[Lys(Me3)]AAGAGAAK [Peptide H1.5K26me3, 15-mer linker histone H1.5 residues 20-34 peptide, tri-methylated K26]”, the “KDM5D demethylation activity, T” value (KDM5D) was “● [red]” and the “KDM3B demethylation activity, T” value (KDM3B) was “● [red]”.
“KKKAA[Lys(Me3)]KAGGTPRKA [Peptide H1.2K25me3, 15-mer linker histone H1.2 residues 20-34 peptide, tri-methylated K25]” was tested, and the “KDM5D demethylation activity, T” value (KDM5D) was “● [red]” and the “KDM3B demethylation activity, T” value (KDM3B) was “● [red]”.
With “KKKAAK[Lys(Me3)]AGGTPRKA [Peptide H1.2K26me3, 15-mer linker histone H1.2 residues 20-34 peptide, tri-methylated K26]” the “KDM5D demethylation activity, T” value (KDM5D) was “● [red]” and the “KDM3B demethylation activity, T” value (KDM3B) was “● [red]”.
“KKKAR[Lys(Me3)]SAGAAKRKA [Peptide H1.4K25me3, 15-mer linker histone H1.4 residues 20-34 peptide, tri-methylated K25]” was tested, and the “KDM5D demethylation activity, T” value (KDM5D) was “● [red]” and the “KDM3B demethylation activity, T” value (KDM3B) was “● [red]”.
With “KKKA[Lys(Me3)]KAGATAGKRK [Peptide H1.3K24me3, 15-mer linker histone H1.3 residues 20-34 peptide, tri-methylated K24]” the “KDM5D demethylation activity, T” value (KDM5D) was “● [red]” and the “KDM3B demethylation activity, T” value (KDM3B) was “● [red]”.

From article PMC12363342, “Investigating the N-terminal linker histone H1 subtypes as substrates for JmjC lysine demethylases” (RSC Chemical Biology, 2025)
